The values below come from patent US9499553B2 (CHUGAI SEIYAKU KABUSHIKI KAISHA, priority 2013, dated 2016).

One assay deals with T1, human NaPi-IIb (Homo sapiens, UniProt O95436).
T1 construct: expressed in transfected cells
T1 sequence (O95436 1-690): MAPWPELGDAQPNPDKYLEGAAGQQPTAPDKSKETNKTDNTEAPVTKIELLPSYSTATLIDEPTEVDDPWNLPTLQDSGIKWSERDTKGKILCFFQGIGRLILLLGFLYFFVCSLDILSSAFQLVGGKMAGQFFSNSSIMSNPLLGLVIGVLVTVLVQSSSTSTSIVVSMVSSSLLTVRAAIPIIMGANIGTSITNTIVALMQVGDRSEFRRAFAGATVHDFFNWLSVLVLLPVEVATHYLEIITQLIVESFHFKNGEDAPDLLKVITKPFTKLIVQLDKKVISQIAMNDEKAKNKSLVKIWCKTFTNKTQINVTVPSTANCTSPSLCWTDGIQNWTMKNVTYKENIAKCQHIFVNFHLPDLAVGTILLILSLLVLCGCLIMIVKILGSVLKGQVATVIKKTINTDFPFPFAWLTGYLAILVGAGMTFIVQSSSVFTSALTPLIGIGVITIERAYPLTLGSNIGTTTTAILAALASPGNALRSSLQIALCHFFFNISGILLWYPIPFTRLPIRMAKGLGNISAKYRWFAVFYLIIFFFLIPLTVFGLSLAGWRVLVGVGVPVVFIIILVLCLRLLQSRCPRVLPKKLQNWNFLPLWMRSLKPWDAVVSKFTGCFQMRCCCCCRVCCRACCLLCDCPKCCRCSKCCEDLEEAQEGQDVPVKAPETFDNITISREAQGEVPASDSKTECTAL
Kind of assay: Inhibitory effect on 33PO4 uptake into human NaPi-IIb-expressing CHO cells. Type of assay: cell-based. The note with it: read-out: IC50. Put shortly: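 Uptake of ³³PO4 was measured by scintillation counting after ice-cold buffer A washes. Cells were CHO stably expressing human NaPi-IIb, seeded overnight, and exposed to ³³PO4 in buffer A at room temperature.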

The target of the next assay is T2, human PiT-2 (Homo sapiens, UniProt Q08357).
T2 construct: expressed in transfected cells; host or cells: CHO cells
T2 sequence (Q08357 1-652): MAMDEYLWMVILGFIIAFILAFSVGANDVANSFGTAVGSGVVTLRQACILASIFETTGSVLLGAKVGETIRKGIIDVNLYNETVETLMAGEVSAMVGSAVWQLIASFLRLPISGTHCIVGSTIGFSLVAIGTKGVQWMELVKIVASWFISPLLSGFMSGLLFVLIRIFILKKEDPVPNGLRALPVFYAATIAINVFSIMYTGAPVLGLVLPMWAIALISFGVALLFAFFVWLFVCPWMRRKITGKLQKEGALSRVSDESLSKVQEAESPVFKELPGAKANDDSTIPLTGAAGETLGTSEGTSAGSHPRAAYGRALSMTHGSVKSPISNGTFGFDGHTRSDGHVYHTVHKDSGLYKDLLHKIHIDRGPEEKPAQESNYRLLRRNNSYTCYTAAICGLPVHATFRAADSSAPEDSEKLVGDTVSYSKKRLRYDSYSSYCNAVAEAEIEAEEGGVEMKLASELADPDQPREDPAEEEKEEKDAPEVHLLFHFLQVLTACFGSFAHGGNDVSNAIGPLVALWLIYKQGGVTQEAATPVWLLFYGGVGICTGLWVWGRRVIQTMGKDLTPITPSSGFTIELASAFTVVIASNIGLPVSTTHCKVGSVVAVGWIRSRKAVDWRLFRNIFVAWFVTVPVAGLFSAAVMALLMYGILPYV
Kind of assay: Inhibitory effect on 33PO4 uptake into human PiT-2-expressing CHO cells. Type of assay: cell-based. The note with it: pH 6.5, read-out: IC50 against 33PO4 uptake into human PiT-2-expressing cells. On the procedure: Test Example 4: Inhibitory Effect on ^33PO4 Uptake into Human PiT-2-Expressing Cell
CHO cells were transfected with human PiT-2 expression plasmids or empty vectors to prepare human PiT-2-expressing cells and empty vector-expressing cells. The human PiT-2-expressing cells or the empty vector-expressing cells were inoculated to a 96-well plate and incubated overnight in a CO2 incubator. […] After a given time, a 1/20 volume of buffer A containing ^33PO4 was added thereto and reacted at room temperature. After washing with ice-cold buffer A, a liquid scintillator was added to each reaction mixture, and the amount of ^33PO4 uptake was measured using TopCount. The rate of inhibition was determined according to the following expression: Rate (%) of inhibition=(1−(Amount of ^33PO4 uptake in the compound-supplemented well containing the human PiT-2-expressing cells−Amount of ^33PO4 uptake in the compound-supplemented well containing the empty vector-expressing cells)/(Amount of ^33PO4 uptake in the DMSO-supplemented well containing the human PiT-2-expressing cells −Amount of ^33PO4 uptake in the DMSO-supplemented well containing the empty vector-expressing cells))×100

Assay [1] has as its system rat small-intestinal brush border membrane vesicles. Kind of assay: Inhibitory effect on 33PO4 uptake into rat small-intestinal brush border membrane vesicles (rapid filtration method). To be noted: 1 μM test compound; 33PO4 uptake into rat small-intestinal BBMVs, reacted for 60 seconds. Type of assay: biochemical. How it is done:
Test Example 1: Inhibitory Effect on ^33PO4 Uptake into Rat Small-Intestinal Brush Border Membrane Vesicles Brush border membrane vesicles (BBMVs) were prepared using the upper region of the small intestine of each Wistar female rat (4-5 weeks old). The preparation of BBMVs was performed according to the method of Murer et al. (Murer […]. Sodium/proton antiport in brush-border-membrane vesicles isolated from rat small intestine and kidney. 1976. J Am Soc Nephrol. 1998 January; 9 (1): 143-50). The ^33PO4 transport activity of the small-intestinal BBMVs was determined by the rapid filtration method. […] Then, ice-cold buffer C (110 mM NaCl, 1 mM KH2PO4, and 10 mM HEPES (pH 7.5)) was added to each reaction mixture, which was immediately suction-filtered through a Millipore filter. The filter was washed with buffer C, and each sample was then dissolved in a liquid scintillator. The amount of ^33PO4 uptake into BBMVs was measured using a liquid scintillation counter.

With `Cc1c(C#N)ncnc1-c1cc(C(F)(F)F)ccc1NC(=O)C1=C(O)[C@@]2(C)CCCN2N(Cc2ccc(OCCN3CCOCC3)c(F)c2F)C1=O` [Example 22, (4aR)-N-[2-(6-Cyano-5-methylpyrimidin-4-yl)-4-(trifluoromethyl)phenyl]-1-[[2,3-difluoro-4-(2-morpholin-4-ylethoxy)phenyl]methyl]-4-hydroxy-4a-methyl-2-oxo-6,7-dihydro-5H-pyrrolo [1,2-b]pyridazine-3-carboxamide], the figures for the half-inhibitory concentration (IC50) at human NaPi-IIb and at human PiT-2 were 7.9 µM and 3.2 µM, respectively.

On to `C[C@]12CCCN1N(Cc1cccc(C#N)c1)C(=O)C(C(=O)Nc1ccc(C(F)(F)F)cc1-c1cnc(Cl)c(C#N)c1)=C2O` [Example 51], for which, in assay [1], the “Rate of uptake inhibition (%) (1 μM)” value is reported as 72%. Moreover, the IC50 on human NaPi-IIb worked out at 16 µM.

On to `C[C@]12CCCN1N(Cc1cccc(F)c1F)C(=O)C(C(=O)Nc1ccc(C(F)(F)F)cc1-c1cccc(C#N)c1F)=C2O` [Example 46], for which the “Rate of uptake inhibition (%) (1 μM)” value in assay [1] is recorded as 71%. Besides, at human NaPi-IIb, the IC50 was 14.1 µM.

`CSc1ccc(-c2cc(C(F)(F)F)ccc2NC(=O)C2=C(O)[C@@]3(C)CCCN3N(Cc3cccc(F)c3F)C2=O)cn1` [Example 97]: the “Rate of uptake inhibition (%) (1 μM)” value in assay [1] came out at 89%. In addition, the IC50 on human NaPi-IIb turned out to be 2.7 µM.

On to `C[C@]12CCCN1N(Cc1cccc(F)c1Br)C(=O)C(C(=O)Nc1cccc(Cl)c1F)=C2O` [Example 43], for which, in assay [1], the “Rate of uptake inhibition (%) (1 μM)” value stood at 79%. The IC50 at human NaPi-IIb came to 8.3 µM.

As for `C[C@]12CCCN1N(Cc1cccc(F)c1F)C(=O)C(C(=O)Nc1ccc(C(F)(F)F)cc1-c1cccc(F)c1C#N)=C2O` [Example 48], in assay [1], the “Rate of uptake inhibition (%) (1 μM)” value came out at 87%. Besides, the IC50 on human NaPi-IIb came out at 16.3 µM.

Turning to `C[C@]12CCCN1N(Cc1cccc(F)c1Br)C(=O)C(C(=O)Nc1ccc(Br)c(Cl)c1)=C2O` [Example 41], the “Rate of uptake inhibition (%) (1 μM)” value in assay [1] stood at 84%. Further, the IC50 at human NaPi-IIb was 6.6 µM.

`COc1c(Cl)ncnc1-c1cc(C(F)(F)F)ccc1NC(=O)C1=C(O)[C@@]2(C)CCCN2N(Cc2cccc(F)c2F)C1=O` [Example 49]: in assay [1], the “Rate of uptake inhibition (%) (1 μM)” value stood at 85%. Moreover, at human NaPi-IIb, the IC50 was 12.9 µM.

Regarding `COC(=O)c1cc(-c2cc(C(F)(F)F)ccc2NC(=O)C2=C(O)[C@@]3(C)CCCN3N(Cc3cccc(F)c3F)C2=O)nc(Cl)n1` [Example 98], in assay [1], the “Rate of uptake inhibition (%) (1 μM)” value was determined as 53%. In addition, the IC50 at human NaPi-IIb was 10.6 µM.

`C[C@]12CCCN1N(Cc1cccc(F)c1Br)C(=O)C(C(=O)Nc1ccc(Cl)cc1F)=C2O` [Example 38]: in assay [1], the “Rate of uptake inhibition (%) (1 μM)” value is 90%. On human NaPi-IIb, the IC50 was 6.7 µM.

As for `COc1nc(C#N)ncc1-c1cc(C(F)(F)F)ccc1NC(=O)C1=C(O)[C@@]2(C)CCCN2N(Cc2cccc(F)c2F)C1=O` [Example 56], the “Rate of uptake inhibition (%) (1 μM)” value in assay [1] was found to be 88%. At human NaPi-IIb, the IC50 amounted to 7.2 µM.

For `CSc1ncc(-c2nc(C(F)(F)F)ccc2NC(=O)C2=C(O)[C@@]3(C)CCCN3N(Cc3cccc(F)c3F)C2=O)cn1` [Example 54], the “Rate of uptake inhibition (%) (1 μM)” value in assay [1] turned out to be 72%. In addition, on human NaPi-IIb, the IC50 was determined as 2.3 µM.

As to `C[C@]12CCCN1N(Cc1cccc(F)c1F)C(=O)C(C(=O)Nc1ccc(Br)c(C(F)(F)F)c1)=C2O` [Example 30], the “Rate of uptake inhibition (%) (1 μM)” value in assay [1] was 71%. Besides, the IC50 at human NaPi-IIb was 2.3 µM.

`C[C@]12CCCN1N(Cc1cccc(F)c1)C(=O)C(C(=O)Nc1cc(F)c(Br)c(F)c1)=C2O` [Example 36]: the “Rate of uptake inhibition (%) (1 μM)” value in assay [1] is listed as 80%. Further, the IC50 on human NaPi-IIb was found to be 6.1 µM.

Turning to `C[C@]12CCCN1N(Cc1ccc(OCCN3CCOCC3)c(F)c1F)C(=O)C(C(=O)Nc1ccc(C(F)(F)F)nc1-c1ccc(OC(F)(F)F)cc1)=C2O` [Example 60], the “Rate of uptake inhibition (%) (1 μM)” value in assay [1] is 78%. Also, the IC50 on human NaPi-IIb was found to be 8.8 µM.

Take `C[C@]12CCCN1N(Cc1cccc(F)c1)C(=O)C(C(=O)Nc1ccc(Br)c(F)c1)=C2O` [Example 35]: the “Rate of uptake inhibition (%) (1 μM)” value in assay [1] was 79%. Further, at human NaPi-IIb, the IC50 was found to be 12.6 µM.

Turning to `Cc1cc(S(=O)(=O)N(C)C)ccc1-c1cc(C(F)(F)F)ccc1NC(=O)C1=C(O)[C@@]2(C)CCCN2N(Cc2cccc(F)c2F)C1=O` [Example 50], the “Rate of uptake inhibition (%) (1 μM)” value in assay [1] was 79%. In addition, the IC50 at human NaPi-IIb is 8.3 µM.

Take `CSc1ncc(-c2cc(C(F)(F)F)ccc2NC(=O)C2=C(O)[C@@]3(C)CCCN3N(Cc3cccc(F)c3F)C2=O)cn1` [Example 96]: the “Rate of uptake inhibition (%) (1 μM)” value in assay [1] amounted to 83%. For the same compound, the IC50 at human NaPi-IIb is 2.8 µM.
